Laboratory results published in US10226457B2, “Systems and methods for treating an opioid-induced adverse pharmacodynamic response” (Purdue Pharma L.P., priority 2014, dated 2019).

Assays:
[1] = system: male Sprague-Dawley rats; test: Rat hot plate assay; details: for hot plate MED (acute pain): 52° C., cutoff 30 seconds
Protocol: Morphine sulphate (1-10 mg/kg) was dissolved in 0.9% normal saline solution (NSS)(vehicle) and administered SC 1 hour prior to testing against vehicle. Data were analyzed by a two-way ANOVA using a Bonferroni Multiple Comparison Test,***P<0.001.
Morphine sulphate (1-10 mg/kg) was dissolved in 0.9% normal saline solution (NSS)(vehicle) and administered SC 1 hour prior to testing against vehicle. % MPE=Percent Maximum Possible Effect. % MPE=(test latency-baseline)/(cutoff-baseline). Data was analyzed using a Bonferroni Multiple Comparison Test,***P<0.001.
Morphine sulphate (10 mg/kg), the positive control, was dissolved in 0.9% NSS (vehicle). The formulations were administered SC 1 hour prior to testing against vehicle. Data were analyzed by a two-way ANOVA using a Bonferroni multiple comparisons test, where *P<0.05 and ***P<0.001. Data are represented as the means+S.E.M.
Morphine sulphate (10 mg/kg) was dissolved in 0.9% NSS (vehicle). The formulations were administered SC 1 hour prior to testing against vehicle. % MPE=Percent Maximum Possible Effect. % MPE=(test latency-baseline)/(cutoff (30 s)-baseline). Data were analyzed by a two-way ANOVA using Bonferroni Multiple Comparisons test for post-hoc analysis, where *P<0.05 and ***P<0.001. Data are represented as the means+SEM.
The positive control, morphine sulfate in 0.9% NS, was administered SC 1 hour prior to testing. Rats were assessed one day prior (BL) and then 1, 3 and 5 hours post-dosing. Hot Plate was set to 52° C. and cutoff was 30 seconds. Data were analyzed by a two-way ANOVA using a Bonferroni Multiple Comparisons Test, where *P<0.05, ***P<0.001 and ****P<0.0001 versus vehicle. Data are represented as the means+S.E.M from two combined studies.
Oxycodone hydrochloride (0.3-5 mg/kg) was dissolved in 0.9% normal saline solution (NSS)(vehicle) and administered SC 1 hour prior to testing against vehicle. Hot plate was set to 52° C. and cutoff was 30 seconds. Data were analyzed by a two-way ANOVA using a Bonferroni multiple comparisons test, where ****P<0.0001. Data are represented as the means+S.E.M.
Compound was administered SC 1 hour prior to testing. Oxycodone hydrochloride (0.3-5 mg/kg) was dissolved in 0.9% normal saline solution (NSS)(vehicle) and administered SC 1 hour prior to testing against vehicle. Hot plate was set to 52° C. and cutoff was 30 seconds. % MPE=. Percent Maximum Possible Effect. % MPE=(test latency-baseline)/(cutoff (30 s)-baseline). Data were analyzed by a two-way ANOVA using Bonferroni Multiple Comparisons test for post-hoc analysis, ****P<0.000. Data are represented as the means+SEM.
Oxycodone HCl was administered SC 1 hour prior to testing. Thermal latency was assessed the day prior (BL) and then 1, 3 and 5 hours post-oxycodone dosing. The hotplate was set to 52° C. and the cutoff was 30 seconds. Oxycodone was dissolved in 0.9% NS (vehicle). […] Data were analyzed by a two-way ANOVA using the Bonferroni Multiple Comparisons test for post-hoc analysis where, ***P<0.001. Data are represented as the means+SEM.
Oxycodone HCl was administered PO 1 hour prior to testing, while morphine sulfate, the positive control, was administered SC 1 hour prior to testing. Behavior was assessed the day prior (BL) and then 1, 3, 5 and 24 hours post-compound administration. The hot plate was set to 52° C. and the cutoff was 30 seconds. Oxycodone was dissolved in water (vehicle), while morphine sulfate was dissolved in 0.9% NS. Data were analyzed by a two-way ANOVA using a Bonferroni Multiple Comparisons Test, where ****P<0.0001.
Rats were assessed for thermal latency the day prior to dosing, then 1.5, 3 and 5 hours post-morphine administration. Data were analyzed by a two-way ANOVA using the Bonferroni Multiple Comparisons Test, where ****P<0.0001 compared to vehicle+vehicle. Data are represented as the means+S.E.M.

[2] = system: male Sprague-Dawley rats; test: Charcoal meal GI transit, opioid alone; details: for GI transit (% of the small intestine travelled by a charcoal meal): vs vehicle
Protocol: 0.5 hour later, a charcoal meal (1 ml/100 grams) was orally administered (PO) to the test subjects.
One hour after the charcoal meal, the test subjects were euthanized by CO2 and the gastrointestinal tract was removed from the stomach to the cecum. The length of the small intestine and the distance (cm) to the leading edge of the charcoal were recorded. Data were analyzed using a one-way ANOVA followed by the Dunnett's Multiple Comparisons test where *P<0.05, **P<0.01 and***P<0.001.
The length of the small intestine and the distance (cm) to the leading edge of the charcoal were recorded. Data were analyzed using a one-way ANOVA followed by Bonferroni's Multiple Comparisons Test where *P<0.05, **P<0.01 and ****P<0.001 vs. vehicle. Data are represented as the means+S.E.M.
One hour after charcoal, all rats were euthanized by CO2 and the GI tract was removed from the stomach to the cecum. The length of the small intestine and the distance (cm) to the leading edge of charcoal was recorded. Data were analyzed using a one-way ANOVA with Bonferonni's Post-Test where ****P<0.0001 vs. vehicle. Data are represented as the means+S.E.M.
One hour later, the rats were euthanized by CO2 and the gastrointestinal tract was removed from the stomach to the cecum. The length of the small intestine and the distance (cm) to the leading edge of charcoal were recorded. Data were analyzed using a one-way ANOVA followed by the Dunnett's Multiple Comparisons test where ***P<0.001. Data are represented as the mean+S.E.M.
Rats were dosed with Oxycodone HCl/Oxy or vehicle (water) PO once daily for 5 days (chronic). Additional groups were dosed only once on day 5 (acute). […] One hour after charcoal, all rats were euthanized by CO2 and the GI tract was removed from the stomach to the cecum. The length of the small intestine and the distance (cm) to the leading edge of charcoal was recorded. Data were analyzed using a one-way ANOVA with Bonferonni's Multiple Comparison Test where * P<0.05, ****P<0.0001 vs. vehicle (chronic), ### vs. oxycodone (acute). Data are represented as the means+S.E.M.

[3] = system: male Sprague-Dawley rats; test: Rat tail flick assay; details: for tail flick MED (acute pain): intensity 40, cutoff 20 seconds
Protocol: Morphine sulphate (1-10 mg/kg) was dissolved in 0.9% normal saline solution (NSS)(vehicle) and administered SC 1 hour prior to testing against vehicle. Data were analyzed by a two-way ANOVA using a Bonferroni post-hoc test, *P<0.05, ***P<0.001.
Morphine sulphate (1-10 mg/kg) was dissolved in 0.9% normal saline solution (NSS)(vehicle) and administered SC 1 hour prior to testing against vehicle. % MPE=Percent of Maximum Possible Effect. % MPE=(test latency-baseline)/(cutoff(20 s)-baseline)*100. Data were analyzed by a two-way ANOVA using a Bonferroni post-hoc test, *P<0.05, **P<0.01, ***P<0.001.
Morphine sulphate (10 mg/kg) was dissolved in 0.9% NSS (vehicle). The formulations were administered SC 1 hour prior to testing against vehicle. Data were analyzed by a two-way ANOVA using a Bonferroni multiple comparisons test, *P<0.05, ***P<0.001.
Morphine sulphate (10 mg/kg) was dissolved in 0.9% NSS (vehicle). The formulations were administered SC 1 hour prior to testing against vehicle. % MPE=Percent Maximum Possible Effect. % MPE=(test latency-baseline)/(cutoff(20 s)-baseline)*100. Data were analyzed by a two-way ANOVA using a Bonferroni multiple comparisons test, ***P<0.001.
The positive control, morphine sulfate in 0.9% NS was administered SC 1 hour prior to testing. Rats were assessed the day prior (BL) and then 1, 3 and 5 hours post-dosing. Tail Flick was set to 40 intensity and cutoff 20 seconds. Data were analyzed by a two-way ANOVA using a Bonferroni Multiple Comparisons Test, where *P<0.05,***P<0.001 and ****P<0.0001. Data are represented as the means+S.E.M of two combined studies.
Oxycodone hydrochloride (0.3-5 mg/kg) was dissolved in 0.9% normal saline solution (NSS)(vehicle) and administered SC 1 hour prior to testing against vehicle. Data were analyzed by a two-way ANOVA using a Bonferroni multiple comparisons test, ****P<0.001.
Oxycodone hydrochloride (0.3-5 mg/kg) was dissolved in 0.9% normal saline solution (NSS)(vehicle) and administered SC 1 hour prior to testing against vehicle. % MPE=Percent Maximum Possible Effect. % MPE=(test latency-baseline)/(cutoff(20 s)-baseline)*100. Data were analyzed by a two-way ANOVA using a Bonferroni multiple comparisons test, ****P<0.001.
Oxycodone HCl and vehicle were administered SC 1 hour prior to testing. Rats were assessed one day prior (BL) and then 1, 3 and 5 hours post-oxycodone administration. The tail flick was set to an intensity of 40 and the cutoff was 20 seconds. Oxycodone was dissolved in 0.9% (vehicle). […] Data were analyzed by a two-way ANOVA followed by the Bonferroni Multiple Comparisons Test where, *P<0.05 and ****P<0.001.
Oxycodone HCl was administered PO 1 hour prior to testing, while morphine sulfate, the positive control, was administered SC 1 Hour prior to testing. Behavior was assessed the day prior (BL) to dosing, and then 1, 3, 5 and 24 hours post-compound administration. The tail flick was set to an intensity of 40 and 20 seconds was used as the cutoff. Oxycodone was dissolved in water (vehicle), while morphine was dissolved in 0.9% NS. Data were analyzed by a two-way ANOVA using a Bonferroni Multiple Comparisons Test, where *P<0.05, **P<0.01, ***P<0.001 and * * * *P<0.0001.
Rats were assessed for tail flick latency the day prior to dosing, then 1.5, 3 and 5 hours post-morphine administration. Data were analyzed by a two-way ANOVA using the Bonferroni Multiple Comparisons Test, where ****P<0.0001 compared to vehicle+vehicle. Data are represented as the means+S.E.M.
Rats were assessed for thermal latency 1.5, 3 and 5 hours post-morphine administration. % MPE=Percent Maximum Possible Effect. % MPE=(test latency-baseline)/(cutoff(20 s)-baseline)*100. Data were analyzed by a two-way ANOVA using a Bonferroni multiple comparisons test for post-hoc analysis where *P<0.05 and ****P<0.001. Data are represented as the means+SEM.
Rats were tested 1 hour after oxycodone injection.

[4] = system: male Sprague-Dawley rats; test: Stomach weight (gastric emptying) after charcoal meal; type: in vivo, rat; details: morphine sulfate 1-10 mg/kg SC, 0.5 hour before charcoal meal; vs vehicle
Protocol: Morphine sulfate (1-10 mg/kg) or 0.9% normal saline (vehicle) was administered SC to the test subjects. 0.5 hour later, a charcoal meal (1 ml/100 grams) was administered PO to the test subjects. One hour after the charcoal meal, the test subjects were euthanized by CO2 and the stomachs were removed and weighed. Data were analyzed using a one-way ANOVA followed by the Dunnett's Multiple Comparisons test where *P<0.05, **P<0.01 and ***P<0.001. […] This effect was dose dependent with a greater magnitude of effect observed with increasing dose.

[5] = morphine sulphate 1-10 mg/kg SC 1 hour prior to testing
[6] = oxycodone hydrochloride 0.3-5 mg/kg SC 1 hour prior to testing

Structure (SMILES) | hot plate % MPE [1, 5] | hot plate latency to nocifensive response [1, 5] | GI transit (% of the small intestine travelled by a charcoal meal) ([2]; morphine sulfate 1-10 mg/kg SC, 0.5 hour before charcoal meal) | tail flick % MPE [3, 5] | tail flick latency to nocifensive response [3, 5] | stomach weight (gastric emptying) [4] | rats found dead ([1]; oxycodone HCl 10 mg/kg SC, at the 3 hr time point) | hot plate MED (acute pain) ([1]; oxycodone HCl PO) [mg/kg] | hot plate MED (acute pain) ([1]; oxycodone HCl SC) [mg/kg] | hot plate % MPE [1, 6] | hot plate latency to nocifensive response [1, 6] | tolerance to inhibition of GI transit on repeated dosing ([2]; oxycodone HCl PO once daily for 5 days (chronic) vs single dose on day 5 (acute)) | GI transit (% of the small intestine travelled by a charcoal meal) ([2]; oxycodone hydrochloride 0.3-5 mg/kg SC, 1 hour before charcoal meal) | rats found dead ([3]; oxycodone HCl 10 mg/kg SC dosing group, at the 3 hr time point) | tail flick MED (acute pain) ([3]; oxycodone HCl PO) [mg/kg] | tail flick MED (acute pain) ([3]; oxycodone HCl SC) [mg/kg] | tail flick % MPE [3, 6] | tail flick latency to nocifensive response [3, 6]
CN1CC[C@]23c4c5ccc(O)c4O[C@H]2[C@@H](O)C=C[C@H]3[C@H]1C5.O=S(=O)(O)O [morphine, morphine sulphate] | increased % of the maximal possible effect | increased latency to nocifensive response | decreases gastrointestinal transit | increased % of the maximal possible effect | increased latency to nocifensive response | increased stomach weight due to delayed gastric emptying | – | – | – | – | – | – | – | – | – | – | – | –
COc1ccc2c3c1O[C@H]1C(=O)CC[C@@]4(O)[C@@H](C2)N(C)CC[C@]314.Cl [oxycodone, oxycodone hydrochloride] | – | – | – | – | – | – | 4 out of 10 | 10 | 3 | increased % of the maximal possible effect | increased latency to nocifensive response | produces some tolerances to its acute effect on the inhibition of GI transit | decreases gastrointestinal transit | 4 out of 10 | 10 | 3 | increased % of the maximal possible effect | increased latency to nocifensive response
